“And” between values parts separate entries of the source, which are not always exact repeats. Identical values can stand only once. Toxic doses and inconclusive results are not listed. Rule as the data show it: active = T/C of 150% or more; inactive = T/C below 125%.
System: L1210 leukemia ip in BDF1 mice, survival T/C
Test: NCI In Vivo Anticancer Drug Screen. Data for tumor model L1210 Leukemia (intraperitoneal) in B6D2F1 (BDF1) mice
Settings: endpoint: mean survival time, higher = longer survival
How it was run: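 Read-out is survival time, reported as the treated-group measurement over the vehicle-control measurement.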

[1] = dose: 100.0 mg/kg/injection, schedule: Q01DX009 (ip), vehicle: Klucel (hydroxypropylcellulose) (HPC)
[2] = dose: 100.0 mg/kg/injection, schedule: Q04DX002 (ip), vehicle: Klucel (hydroxypropylcellulose) (HPC)
[3] = dose: 200.0 mg/kg/injection, schedule: Q01DX009 (ip), vehicle: Klucel (hydroxypropylcellulose) (HPC)
[4] = dose: 100.0 mg/kg/injection, schedule: Q01DX001 (ip), vehicle: Klucel (hydroxypropylcellulose) (HPC)
[5] = dose: 200.0 mg/kg/injection, schedule: Q01DX001 (ip), vehicle: Klucel (hydroxypropylcellulose) (HPC)
[6] = dose: 400.0 mg/kg/injection, schedule: Q01DX001 (ip), vehicle: Klucel (hydroxypropylcellulose) (HPC)

Measured: T/C

O=C(CS)CS
inactive: dose: 6.25 mg/kg/injection, schedule: Q01DX009 (ip), vehicle: water 102 % of control | dose: 12.5 mg/kg/injection, schedule: Q01DX009 (ip), vehicle: water 114 % of control | dose: 25.0 mg/kg/injection, schedule: Q01DX009 (ip), vehicle: water 98 % of control and 105 % of control | dose: 25.0 mg/kg/injection, schedule: Q04DX003 (ip), vehicle: water 102 % of control | dose: 50.0 mg/kg/injection, schedule: Q01DX009 (ip), vehicle: water 97 % of control and 103 % of control | dose: 50.0 mg/kg/injection, schedule: Q04DX003 (ip), vehicle: water 91 % of control | dose: 100.0 mg/kg/injection, schedule: Q04DX003 (ip), vehicle: water 97 % of control

O=[Se]1OCc2ccccc2CO1
inactive: dose: 9.5 mg/kg/injection, schedule: Q01DX001 (ip), vehicle: saline with Tween-80 101 % of control | dose: 19.0 mg/kg/injection, schedule: Q01DX001 (ip), vehicle: saline with Tween-80 106 % of control | dose: 38.0 mg/kg/injection, schedule: Q01DX001 (ip), vehicle: saline with Tween-80 113 % of control

CN(Cc1cc(Cl)cc(Cl)c1O)C1CC2CCC1(C)C2(C)C (stereo unspecified)
inactive: dose: 25.0 mg/kg/injection, schedule: Q04DX002 (ip), vehicle: Klucel (hydroxypropylcellulose) (HPC) 96 % of control | dose: 50.0 mg/kg/injection, schedule: Q04DX002 (ip), vehicle: Klucel (hydroxypropylcellulose) (HPC) 103 % of control | [1] 90 % of control | [2] 92 % of control | [3] 88 % of control | dose: 400.0 mg/kg/injection, schedule: Q01DX009 (ip), vehicle: Klucel (hydroxypropylcellulose) (HPC) 103 % of control

COc1cc(C=Nc2cccc(Cl)c2)ccc1N(CCCl)CCCl
inactive: dose: 12.5 mg/kg/injection, schedule: Q01DX Z (ip), vehicle: carboxymethylcellulose (CMC) 122 % of control | dose: 25.0 mg/kg/injection, schedule: Q01DX Z (ip), vehicle: carboxymethylcellulose (CMC) 120 % of control | dose: 35.0 mg/kg/injection, schedule: Q01DX015 (ip), vehicle: carboxymethylcellulose (CMC) 87 % of control

Cc1ccc(S(=O)(=O)N(Cc2cccc([N+](=O)[O-])c2)c2ccc(C(=O)O)cc2)cc1
inactive: [2] 91 % of control | dose: 200.0 mg/kg/injection, schedule: Q04DX002 (ip), vehicle: Klucel (hydroxypropylcellulose) (HPC) 98 % of control | dose: 400.0 mg/kg/injection, schedule: Q04DX002 (ip), vehicle: Klucel (hydroxypropylcellulose) (HPC) 102 % of control

O=C(Cl)OCC(Cl)(Cl)Cl
inactive: [4] 100 % of control | [1] 100 % of control | [5] 100 % of control | [3] 96 % of control | [6] 100 % of control

CC1CCC(O)(C(C)(C(=O)O)c2ccccc2)CC1 (stereo unspecified)
inactive: dose: 55.0 mg/kg/injection, schedule: Q01DX Z (ip), vehicle: methylcellulose (MC) 96 % of control | dose: 83.0 mg/kg/injection, schedule: Q01DX Z (ip), vehicle: methylcellulose (MC) 105 % of control | dose: 125.0 mg/kg/injection, schedule: Q01DX Z (ip), vehicle: methylcellulose (MC) 93 % of control

CCCCCc1cc(=O)[nH]c(=O)[nH]1
inactive: dose: 50.0 mg/kg/injection, schedule: Q01DX001 (ip), vehicle: Klucel (hydroxypropylcellulose) (HPC) 97 % of control | [4] 96 % of control | [5] 96 % of control

COC(=O)CCC(C)C1CCC2C3CCC4CC(OC(=O)c5ccccc5)CCC4(C)C3CC(=O)C12C (stereo unspecified)
inactive: dose: 100.0 mg/kg/injection, schedule: Q01DX001 (sc), vehicle: steriod suspending solution 102 % of control | dose: 100.0 mg/kg/injection, schedule: Q01DX009 (sc), vehicle: steriod suspending solution 93 % of control | dose: 200.0 mg/kg/injection, schedule: Q01DX001 (sc), vehicle: steriod suspending solution 106 % of control | dose: 200.0 mg/kg/injection, schedule: Q01DX009 (sc), vehicle: steriod suspending solution 98 % of control | dose: 400.0 mg/kg/injection, schedule: Q01DX001 (sc), vehicle: steriod suspending solution 104 % of control | dose: 400.0 mg/kg/injection, schedule: Q01DX009 (sc), vehicle: steriod suspending solution 99 % of control

CC[P+](C)(CC)c1ccccc1
inactive: dose: 15.0 mg/kg/injection, schedule: Q01DX001 (ip), vehicle: saline 98 % of control | dose: 30.0 mg/kg/injection, schedule: Q01DX001 (ip), vehicle: saline 101 % of control

Cc1ccccc1N=Cc1ccccc1O.[Co]
inactive: dose: 100.0 mg/kg/injection, schedule: Q01DX001 (ip), vehicle: other 102 % of control | dose: 200.0 mg/kg/injection, schedule: Q01DX001 (ip), vehicle: other 98 % of control

CC1(C)C2CCC1(C)C(O)C2=O (stereo unspecified)
inactive: dose: 75.0 mg/kg/injection, schedule: Q01DX009 (ip), vehicle: saline 95 % of control | dose: 150.0 mg/kg/injection, schedule: Q01DX009 (ip), vehicle: saline 92 % of control | dose: 300.0 mg/kg/injection, schedule: Q01DX009 (ip), vehicle: saline 95 % of control

[NH-]CC(=O)O.[NH-]CC(=O)O.[Pt+2]
inactive: dose: 14.0 mg/kg/injection, schedule: Q01DX009 (ip), vehicle: other 89 % of control | dose: 27.9 mg/kg/injection, schedule: Q01DX001 (ip), vehicle: other 93 % of control | dose: 28.0 mg/kg/injection, schedule: Q01DX009 (ip), vehicle: other 100 % of control | dose: 55.8 mg/kg/injection, schedule: Q01DX001 (ip), vehicle: other 89 % of control | dose: 56.0 mg/kg/injection, schedule: Q01DX009 (ip), vehicle: other 96 % of control | dose: 112.0 mg/kg/injection, schedule: Q01DX001 (ip), vehicle: other 97 % of control | dose: 112.0 mg/kg/injection, schedule: Q01DX009 (ip), vehicle: other 113 % of control | dose: 223.0 mg/kg/injection, schedule: Q01DX001 (ip), vehicle: other 109 % of control

NS(=O)(=O)N1CCCCC1
inactive: dose: 9.5 mg/kg/injection, schedule: Q01DX001 (ip), vehicle: saline 104 % of control | dose: 19.0 mg/kg/injection, schedule: Q01DX001 (ip), vehicle: saline 104 % of control | dose: 38.0 mg/kg/injection, schedule: Q01DX001 (ip), vehicle: saline 95 % of control

O=[N+]([O-])c1ccc(-c2cc3ccccc3[n+]([O-])c2)cc1
inactive: dose: 100.0 mg/kg/injection, schedule: Q01DX001 (ip), vehicle: saline 98 % of control | dose: 200.0 mg/kg/injection, schedule: Q01DX001 (ip), vehicle: saline 101 % of control | dose: 400.0 mg/kg/injection, schedule: Q01DX001 (ip), vehicle: saline 101 % of control

CN=C(NN)Nc1ccccc1
inactive: dose: 87.5 mg/kg/injection, schedule: Q04DX003 (ip), vehicle: saline 96 % of control | dose: 175.0 mg/kg/injection, schedule: Q04DX003 (ip), vehicle: saline 104 % of control | dose: 350.0 mg/kg/injection, schedule: Q04DX003 (ip), vehicle: saline 93 % of control

CC1(C)CC2(C)OC3(C)CC(C)(C)OC3(C)OC2(C)O1 (stereo unspecified)
inactive: [4] 107 % of control | [5] 102 % of control | [6] 102 % of control

— PubChem BioAssay AID248 (DTP/NCI, 2004)
